We go through six molecules from patent US20230105212A1, “BIPHENYL DERIVATIVE INHIBITOR, PREPARATION METHOD THEREFOR AND USE THEREOF” (SHANGHAI HANSOH BIOMEDICAL CO., LTD., priority 2020, published 2023).

pEC50, pIC50: −log10 of the molar value.

The subject of one data set is MC38-hPDL1 cells. Briefly: In vitro cytotoxicity on MC38-hPDL1 cells (CellTiter-Glo). The following applies: for MC38-hPDL1 inhibition rate (%): 72 hours; for pIC50: Mus musculus, MC38-hPD-L1, 72 hours. The data set is classed as cell-based, mouse. The procedure:
Test Embodiment 5. In Vitro Cytotoxicity of the Compounds of the Present Disclosure on NFAT-Luc2/PD1 Jurkat Cells and MC38-hPDL1 Cells
Experimental purpose: To test the in vitro cytotoxicity of compounds on NFAT-luc2/PD1 Jurkat cells and MC38-hPDL1 cells.
When the cells were cultured to an appropriate degree of confluency, the cells were collected, and the cells was adjusted in an appropriate cell concentration by complete medium, then the cell suspension was plated in a 96-well plate, 90 μL per well, and put in a 37° C., 5% CO2 incubator overnight; compound solutions of different concentrations were prepared by DMSO and medium, and a vehicle control was set; compound solutions were added to a 96-well plate, 10 μL per well, and put in a 37° C., 5% CO2 incubator and cultured for 72 hours. After that, CellTiter-Glo solution was added, the mixture was shaken and mixed evenly, incubated in the dark for 10 minutes, and a BioTek Synergy H1 microplate reader was used for reading.
Luminescence signal value was used to calculate the inhibition rate, and the concentration and inhibition rate were fitted by nonlinear regression curve using Graphpad Prism software to obtain IC50 values, as shown in the following table: […]

Data set [1] in a line: Pharmacokinetics test in Balb/C mice. As to conditions: male, mouse, po, p.o. 5 mg/kg, plasma; for MRT inf: read-out: Average residence time MRT0−∞; for AUC(0-t): read-out: Curve area AUC0−t; for Cmax: read-out: Drug concentration in plasma Cmax; for Tmax: read-out: Peak time tmax; for half-life: read-out: Half life t1/2 (converted). The data set is classed as in vivo. The procedure: Test Embodiment 6. Pharmacokinetics Test in Balb/C Mice
Taking Balb/C mice as the test animals, the pharmacokinetic behavior in the plasma of mice of the following compound embodiments was studied when orally administered at a dose of 5 mg/kg.
Balb/C Mouse 6/embodiment, male, Shanghai Jisijie Laboratory Animal Co., Ltd., animal production license number (SCXK (Shanghai) 2013-0006 No. 311620400001794).
0.5% HPMC (1% Tween 80), dissolved by sonication, to prepare a clear solution or a homogeneous suspension.
Balb/C mice, male; p.o. after overnight fasting, respectively, at a dose of 5 mg/kg, administered in a volume of 10 mL/kg.
Before and after administration of mice, at 0, 0.5, 1, 2, 4, 6, 8 and 24 hours, 0.1 mL of blood was collected from the orbit, placed in an EDTA-K2 test tube, and centrifuged at 6000 rpm at 4° C. for 6 min to separate the plasma, stored at −80° C.
1) 40 μL of plasma samples were added to 160 μL of acetonitrile for precipitation, mixed and centrifuged at 3500×g for 5 to 20 minutes.
2) 100 μL of the supernatant solution after treatment was taken for LC/MS/MS to analyze the concentration of the compounds to be tested.
2.6 Liquid Phase Analysis • Liquid phase condition: Shimadzu LC-20AD pump • MS conditions: AB Sciex API 4000 Mass Spectrometer • Chromatographic column: phenomenex Gemiu 5 μm C18 50×4.6 mm • Mobile phase: A solution was aqueous 0.1% formic acid solution, B solution was acetonitrile • Flow rate: 0.8 mL/min • Elution time: 0 to 4.0 minutes, the eluent was as follows:
The main parameters of pharmacokinetics were calculated with WinNonlin 8.2, and the results of the mice pharmacokinetic experiments were shown in the following table: […]

Data set [2] relates to CHO-PDL1/Jurkat-PD1 cell pathway. Briefly: Inhibition of CHO-PDL1/Jurkat-PD1 cell pathway (NFAT luciferase reporter). The data set is classed as cell-based. As to conditions: for pEC50: 6 hours incubation, luciferase signal; for maximal fold induction: relative to the signal value of the non-dosed group, read-out: Maximum induction fold. The method, boiled down:
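CHO-K1 cells stably expressing PD-L1, plated overnight, then co-cultured with PD-1/NFAT-luc2 Jurkat cells plus compounds in RPMI 1640 with 2% FBS for 6 h at 37 °C. Luminescence read after One-Glo, 10 min at RT. EC50 fitted from the concentration–signal curve; maximum induction fold calculated relative to the non-dosed group.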

Consider `COc1nc(-c2cccc(-c3cccc(NC(=O)c4nc5c(n4C)CCN(C)C5)c3Cl)c2Cl)cnc1CN1CC2(C1)CN(C(C)=O)C2` [Embodiment 152, N-(3′-(5-((6-Acetyl-2,6-diazaspiro[3.3]heptan-2-yl)methyl)-6-methoxypyrazin-2-yl)-2,2′-dichloro-[1,1′-biphenyl]-3-yl)-1,5-dimethyl-4,5,6,7-tetrahydro-1H-imidazo[4,5-c]pyridine-2-carboxamide], for which, in the data set on MC38-hPDL1 cells, the “MC38-hPDL1 inhibition rate (%)” value is 15% and the pIC50 is less than 5.00. In data set [1], the MRT inf is 10 h, the AUC(0-t) worked out at 1140 ng·h/mL, the Cmax turned out to be 93 ng/mL and the Tmax is 8 h. In data set [2], the pEC50 was 7.18 and the maximal fold induction was found to be 3.4.
Consider `COc1nc(-c2cccc(-c3cccc(NC(=O)c4nc5c(n4C)CCN(C)C5)c3Cl)c2Cl)ncc1CN1CC(CNC(C)=O)C1` [Embodiment 225, N-(3′-(5-((3-(Acetylaminomethyl)azetidin-1-yl)methyl)-4-methoxypyrimidin-2-yl)-2,2′-dichloro-[1,1′-biphenyl]-3-yl)-1,5-dimethyl-4,5,6,7-tetrahydro-1H-imidazo[4,5-c]pyridine-2-carboxamide], for which, in the data set on MC38-hPDL1 cells, the “MC38-hPDL1 inhibition rate (%)” value turned out to be 1% and the pIC50 is less than 5.00. In data set [1], the MRT inf was found to be 10.6 h, the AUC(0-t) amounted to 1920 ng·h/mL, the half-life is 9.2 h and the Tmax came to 2 h.
As for `COc1nc(-c2cccc(-c3cccc(NC(=O)c4nc5c(n4C)CCN(C)C5)c3Cl)c2Cl)ccc1CN1CC(C(=O)N(C)C)C1` [Embodiment 183, N-(2,2′-Dichloro-3′-(5-((3-(dimethylcarbamoyl)azetidin-1-yl)methyl)-6-methoxypyridin-2-yl)-[1,1′-biphenyl]-3-yl)-1,5-dimethyl-4,5,6,7-tetrahydro-1H-imidazo[4,5-c]pyridine-2-carboxamide], in the data set on MC38-hPDL1 cells, the “MC38-hPDL1 inhibition rate (%)” value turned out to be 14% and the pIC50 is less than 5.00. Moreover, in data set [1], the MRT inf came to 16.8 h, the AUC(0-t) is 1190 ng·h/mL, the Cmax stood at 75 ng/mL and the half-life was 10.9 h. Also, the Tmax in data set [1] is 6 h.
Consider `COc1nc(-c2cccc(-c3cccc(NC(=O)c4nc5c(n4C)CCN(C)C5)c3Cl)c2Cl)ncc1CN1CC(CO)C1` [Embodiment 223, N-(2,2′-Dichloro-3′-(5-((3-(hydroxymethyl)azetidin-1-yl)methyl)-4-methoxypyrimidin-2-yl)-[1,1′-biphenyl]-3-yl)-1,5-dimethyl-4,5,6,7-tetrahydro-1H-imidazo[4,5-c]pyridine-2-carboxamide], for which, in the data set with MC38-hPDL1 cells, the “MC38-hPDL1 inhibition rate (%)” value amounted to 2% and the pIC50 was less than 5.00. In data set [1], the MRT inf is 16 h, the AUC(0-t) was determined as 356 ng·h/mL, the Cmax came out at 24 ng/mL and the half-life is 10.5 h. Moreover, the Tmax in data set [1] is 1 h. In addition, in data set [2], the pEC50 was 7.14 and the maximal fold induction turned out to be 3.3.
In the case of `COc1nc(-c2cccc(-c3cccc(NC(=O)c4nc5c(n4C)CCN(C)C5)c3Cl)c2Cl)ccc1CNC1COC1` [Embodiment 114, N-(2,2′-Dichloro-3′-(6-methoxy-5-((oxetan-3-ylamino)methyl)pyridin-2-yl)-[1,1′-biphenyl]-3-yl)-1,5-dimethyl-4,5,6,7-tetrahydro-1H-imidazo[4,5-c]pyridine-2-carboxamide], in the data set with MC38-hPDL1 cells, the “MC38-hPDL1 inhibition rate (%)” value was found to be 14.0%^ and the pIC50 was less than 5.00. Besides, in data set [1], the MRT inf stood at 11.3 h, the AUC(0-t) was found to be 596 ng·h/mL, the Cmax stood at 48 ng/mL and the half-life was 9 h. In addition, the Tmax in data set [1] stood at 2 h.
`COc1nc(-c2cccc(-c3cccc(NC(=O)c4nc5c(n4C)CCN(C)C5)c3Cl)c2Cl)cnc1CN1CC(NC(C)=O)C1` [Embodiment 218, N-(3′-(5-((3-Acetylaminoazetidin-1-yl)methyl)-6-methoxypyrazin-2-yl)-2,2′-dichloro-[1,1′-biphenyl]-3-yl)-1,5-dimethyl-4,5,6,7-tetrahydro-1H-imidazo[4,5-c]pyridine-2-carboxamide]: in the data set with MC38-hPDL1 cells, the “MC38-hPDL1 inhibition rate (%)” value was determined as 51% and the pIC50 is 5.03. In data set [2], the pEC50 is 7.27 and the maximal fold induction turned out to be 2.8.
